Values joined by “and” are separate entries in the source; they are usually repeats but may differ in a detail not shown here. Identical values can stand only once.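 All cell lines were grown in 96-well plates and treated with compound for 48 hours. Here, GI50 denotes the concentration required for 50% inhibition of growth. Definition used: TGI = concentration required for complete inhibition of growth.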
Columns and labels:
Test in all cases: NCI tumour cell line growth inhibition, 48 h
[1] = tested on: K-562 leukemia
[2] = tested on: M14 melanoma
[3] = tested on: MALME-3M melanoma
[4] = tested on: MDA-MB-231 breast
[5] = tested on: MOLT-4 leukemia
[6] = tested on: OVCAR-3 ovarian
[7] = tested on: OVCAR-4 ovarian
[8] = tested on: SK-MEL-2 melanoma
[9] = tested on: SK-OV-3 ovarian
[10] = tested on: SN12C renal

CCCCCCCCSC1=CC(=O)c2nc3ccccc3c3ccnc1c23
GI50 [1]: 27.4 µM
TGI [1]: > 100 µM
GI50 [2]: > 100 µM
TGI [2]: > 100 µM
GI50 [3]: 83.3 µM
TGI [3]: > 100 µM
GI50 [4]: 5.94 µM
TGI [4]: > 100 µM
GI50 [5]: 6.03 µM
TGI [5]: > 100 µM
GI50 [6]: 19 µM
TGI [6]: > 100 µM
GI50 [7]: 19.1 µM
TGI [7]: > 100 µM
GI50 [8]: > 100 µM
TGI [8]: > 100 µM
GI50 [9]: > 100 µM
TGI [9]: > 100 µM
GI50 [10]: 14 µM
TGI [10]: > 100 µM

O=C(NCCNc1nccc(-c2c(-c3cccc(O)c3)nc3sccn23)n1)c1ccccc1O
GI50 [1]: 4.11 µM
TGI [1]: > 100 µM
GI50 [2]: 0.342 µM
TGI [2]: 13.6 µM
GI50 [3]: 0.152 µM
TGI [3]: 18.7 µM
GI50 [4]: 2.87 µM
TGI [4]: 32 µM
GI50 [5]: 4.87 µM
TGI [5]: > 52.2 µM
GI50 [6]: 5.57 µM
TGI [6]: 47.8 µM
GI50 [7]: 6.67 µM
TGI [7]: 53.6 µM
GI50 [8]: 1.59 µM
TGI [8]: 6.09 µM
GI50 [9]: 4.31 µM
TGI [9]: 39.7 µM
GI50 [10]: 3.56 µM
TGI [10]: 52 µM

C=C(CNCCO)[C@@H]1CC[C@]2(CO)CC[C@]3(C)[C@H](CC[C@@H]4[C@@]5(C)CCC(N)C(C)(C)[C@@H]5CC[C@]43C)[C@@H]12 (stereo partly drawn)
GI50 [1]: 1.48 µM
TGI [1]: 3.33 µM
GI50 [2]: 2.05 µM
TGI [2]: 3.97 µM
GI50 [3]: 1.58 µM
TGI [3]: 3.11 µM
GI50 [4]: 1.52 µM
TGI [4]: 3.14 µM
GI50 [5]: 1.99 µM
TGI [5]: 5.84 µM
GI50 [6]: 7.71 µM
TGI [6]: 20.7 µM
GI50 [7]: 3.42 µM
TGI [7]: 13.6 µM
GI50 [8]: 1.98 µM
TGI [8]: 3.65 µM
GI50 [9]: 11.1 µM
TGI [9]: 23.3 µM
GI50 [10]: 1.97 µM
TGI [10]: 4.07 µM

Cc1ccc(-c2nnc(-c3ccc4ccccc4c3)o2)cc1
TGI [1]: > 51.2 µM
TGI [2]: > 93.2 µM
TGI [3]: > 88.9 µM
TGI [4]: > 100 µM
TGI [5]: > 26.6 µM
TGI [6]: > 100 µM
TGI [7]: > 100 µM
TGI [8]: > 32.6 µM
TGI [9]: > 100 µM
TGI [10]: > 100 µM

O=C(Nc1ccc(I)cc1)c1cc([N+](=O)[O-])ccc1O
GI50 [1]: 4.69 µM
TGI [1]: > 100 µM
GI50 [2]: 12.8 µM
TGI [2]: 62.8 µM
GI50 [3]: 19.9 µM
TGI [3]: 70.3 µM
GI50 [4]: 10 µM
TGI [4]: 53.1 µM
GI50 [5]: 4.67 µM
TGI [5]: 51.3 µM
GI50 [6]: 3.74 µM
TGI [6]: 32.1 µM
GI50 [7]: 4.57 µM
TGI [7]: 90.8 µM
GI50 [8]: 3.54 µM
TGI [8]: 20.1 µM
GI50 [9]: 6.15 µM
TGI [9]: > 100 µM
GI50 [10]: 4.61 µM
TGI [10]: 75.4 µM

COC(=O)[C@@H](C)C[C@H](Cc1ccc(F)cc1)NC(=O)c1csc([C@@H](C[C@H](C(C)C)N(C)C(=O)[C@@H](NC(=O)[C@H]2CCCCN2C)C(C)C)OC(C)=O)n1
TGI [1]: > 16.7 µM
GI50 [2]: 0.00119 µM and 0.00539 µM
TGI [2]: 0.763 µM and 0.079 µM
GI50 [3]: 4.51 µM
TGI [3]: > 16.7 µM
GI50 [4]: 0.0023 µM and 0.0158 µM
GI50 [5]: 0.00245 µM and 0.00876 µM
TGI [5]: > 16.7 µM
TGI [6]: 0.00216 µM and 0.012 µM
TGI [7]: > 16.7 µM
GI50 [8]: 0.000792 µM and 0.00503 µM
TGI [8]: > 16.7 µM
GI50 [9]: 0.00736 µM and 0.0553 µM
TGI [9]: > 16.7 µM
GI50 [10]: 0.00197 µM and 0.013 µM
TGI [10]: > 16.7 µM

CCOC(=O)Nc1nc2ccc(OCC)cc2s1
GI50 [1]: 3.17 µM
TGI [1]: > 100 µM
GI50 [2]: 6.84 µM
TGI [2]: > 100 µM
GI50 [3]: > 100 µM
TGI [3]: > 100 µM
GI50 [4]: > 100 µM
TGI [4]: > 100 µM
GI50 [5]: 59.4 µM
TGI [5]: > 100 µM
GI50 [6]: > 41.6 µM
TGI [6]: > 100 µM
GI50 [7]: > 82.5 µM
TGI [7]: > 100 µM
GI50 [8]: 40.3 µM
TGI [8]: > 100 µM
GI50 [9]: > 100 µM
TGI [9]: > 100 µM
GI50 [10]: > 93.4 µM
TGI [10]: > 100 µM

NC1CCC(Nc2nc(NCc3ccc(-c4ccco4)nc3)c3ncn(C4CCCC4)c3n2)CC1 (stereo not drawn)
GI50 [1]: 0.0417 µM
TGI [1]: 1.17 µM
GI50 [2]: 0.0213 µM
TGI [2]: 0.193 µM
GI50 [3]: 0.035 µM
TGI [3]: 0.212 µM
GI50 [4]: 0.0137 µM
GI50 [5]: 0.0222 µM
GI50 [6]: 0.0273 µM
TGI [6]: 0.0778 µM
GI50 [7]: 0.0307 µM
GI50 [8]: 0.034 µM
TGI [8]: 0.145 µM
GI50 [9]: 0.049 µM
TGI [9]: 15.6 µM
GI50 [10]: 0.0371 µM
TGI [10]: 11.6 µM

CNC(=O)c1ccccc1Nc1nc(Nc2ccc(N3CCOCC3)cc2OC)ncc1Cl
GI50 [1]: 4.75 µM
TGI [1]: > 90.5 µM
GI50 [2]: 0.541 µM
TGI [2]: > 62.8 µM
GI50 [3]: 0.405 µM
TGI [3]: 16.9 µM
GI50 [4]: 1.09 µM
TGI [4]: 5.26 µM
GI50 [5]: 1.85 µM
TGI [5]: > 63.7 µM
GI50 [6]: 1.73 µM
TGI [6]: > 53.3 µM
GI50 [7]: 1.95 µM
TGI [7]: > 47.1 µM
GI50 [8]: 0.274 µM
TGI [8]: 2.5 µM
GI50 [9]: 0.543 µM
TGI [9]: 3.7 µM
GI50 [10]: 1.77 µM
TGI [10]: > 100 µM

CN(C)c1ccc(-c2cc(-c3ccc(Nc4nc(Nc5ccc(Cl)cc5)nc(Nc5ccc(Cl)cc5)n4)cc3)no2)cc1
GI50 [1]: 1.72 µM
TGI [1]: 5.3 µM
GI50 [2]: 2.62 µM
TGI [2]: 13.3 µM
GI50 [3]: 13 µM
TGI [3]: 36.9 µM
GI50 [4]: 9.66 µM
TGI [4]: 37.7 µM
GI50 [5]: 1.32 µM
TGI [5]: 3.38 µM
GI50 [6]: 3.42 µM
TGI [6]: 8.96 µM
GI50 [7]: 7.19 µM
TGI [7]: > 100 µM
GI50 [8]: 2.87 µM
TGI [8]: 11 µM
GI50 [9]: 20 µM
TGI [9]: 67 µM
GI50 [10]: 9.63 µM
TGI [10]: 61 µM

COc1cc2nc(C)nc(N[C@H](C)c3cc(N)cc(C(F)(F)F)c3)c2cc1O[C@H]1CCOC1
GI50 [1]: 0.489 µM
TGI [1]: 23.2 µM
GI50 [2]: 16.1 µM
TGI [2]: 31.7 µM
GI50 [3]: 18.2 µM
TGI [3]: 33.4 µM
GI50 [4]: 12.1 µM
TGI [4]: 28.6 µM
GI50 [5]: 12.3 µM
TGI [5]: 41.5 µM
GI50 [6]: 15.6 µM
TGI [6]: 38.4 µM
GI50 [7]: 17 µM
TGI [7]: 55.1 µM
GI50 [8]: 18 µM
TGI [8]: 34.7 µM
GI50 [9]: 14.2 µM
TGI [9]: 28.3 µM
GI50 [10]: 6.46 µM
TGI [10]: 21.9 µM

CCOc1ccccc1-n1c(CN2CCN(C(=O)COc3ccc(CNCCCCCCN4C5CCCC4CC(OC(=O)Nc4cc(C)ccc4OC)C5)cc3)CC2)nc2ccccc2c1=O (stereo not drawn)
GI50 [1]: 0.651 µM
TGI [1]: 1.36 µM
GI50 [2]: 1.43 µM
TGI [2]: 3.01 µM
GI50 [3]: 1.7 µM
TGI [3]: 3.21 µM
GI50 [4]: 0.815 µM
TGI [4]: 2.13 µM
GI50 [5]: 0.68 µM
TGI [5]: 1.5 µM
GI50 [6]: 1.78 µM
TGI [6]: 3.49 µM
GI50 [7]: 1.75 µM
TGI [7]: 3.34 µM
GI50 [8]: 1.99 µM
TGI [8]: 3.62 µM
GI50 [9]: 1.89 µM
TGI [9]: 3.45 µM
GI50 [10]: 1.76 µM
TGI [10]: 3.24 µM

Source: PubChem BioAssay (NCI)
